9 compounds from US20240252488A1 (KOREA RESEARCH INSTITUTE OF CHEMICAL TECHNOLOGY, priority 2020, published 2024) can be followed below.

The target of assay [1] is T1, MLKL (Homo sapiens, UniProt Q8NB16).
T1 sequence (Q8NB16 1-471): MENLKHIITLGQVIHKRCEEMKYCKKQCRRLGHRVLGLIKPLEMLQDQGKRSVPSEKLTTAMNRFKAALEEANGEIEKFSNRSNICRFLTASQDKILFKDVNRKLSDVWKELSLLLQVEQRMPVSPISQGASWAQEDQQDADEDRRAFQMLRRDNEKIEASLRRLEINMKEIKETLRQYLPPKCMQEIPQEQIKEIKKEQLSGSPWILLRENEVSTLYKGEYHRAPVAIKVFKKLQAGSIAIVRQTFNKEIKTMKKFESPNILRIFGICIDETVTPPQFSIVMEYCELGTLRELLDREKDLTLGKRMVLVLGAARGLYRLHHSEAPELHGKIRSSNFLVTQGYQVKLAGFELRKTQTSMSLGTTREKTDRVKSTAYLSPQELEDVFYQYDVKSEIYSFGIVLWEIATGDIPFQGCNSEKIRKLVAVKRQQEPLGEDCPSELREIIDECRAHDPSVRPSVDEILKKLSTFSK
In words: MLKL degradation assay in HepG2 cell line (western blot). The class given is cell-based. Set-up: endogenous in cells; host or cells: HepG2 or HaCaT. The following applies: cell line not given; for Degradation assay (Degradation %) 1 μM: compound 1 μM; for Degradation assay (Degradation %) 10 μM: compound 10 μM. On the procedure:
MLKL degradation ability was evaluated in the following method.
1 mL of Human liver cancer cell line (HepG2 cell line) or human skin cell line (HaCaT cell line) was equally distributed into each well at 2.0×10^5 cells/mL in a 12-well cell culture plate. On the next day, the medium was replaced with a medium made so that the final concentration of test compound was 1 or 10 μM (1 mL/well), and incubated in 5% CO2, at 37° C. for 20-24 hours (Thermo scientific, Forma steri-cycle).
For protein preparation after incubation, cells were washed with 1×TBST, and 60 μL of RIPA lysis buffer containing Halt™ Protease and Phosphatase Inhibitor Cocktail was dispensed into each well. After scraping the cells with a scraper, the cells were recovered, and the pallet was homogenized and reacted on ice for 30 minutes. After the cells were centrifuged at 13,000 rpm, 10 minutes, 4° C., the supernatant was transferred to a new E-tube. For protein quantification, after dispensing sample and BCA (0-4 mg/ml) in a 96 well plate, 100 μL of BCA was dispensed and reacted in a 37° C. incubator for 30 minutes. After measuring the absorbance (SpectraMax, M5e, 562 nm), the amount of the sample was adjusted with the same concentration of protein and 4× Laemmli sample buffer, DW, and reacted at 100° C. for 5 minutes.
After assembling the MP TGX Precast Gel in the Mini-PROTEAN Tetra Cell, the same protein (10-15 μg) was added in an 8-10 μL volume per well, 1×Tris-Glycine Buffer was added, and loading was performed. After loading was completed, transfer was performed using Pierce G2 Fast Blotter and Pierce 1-Step Transfer Buffer. After completion of the transfer, 10 ml of SuperBlock™ Blocking Buffer was dispensed and reacted at room temperature for 10 minutes. 5% BSA containing the primary antibody was dispensed and reacted over night at 4° C. The next day, washing was performed three times with 1×TBST at room temperature for 10 minutes. 5% BSA containing the secondary antibody was dispensed and reacted at room temperature for 1 hour. Washing was performed three times with 1×TBST at room temperature for 10 minutes. The amount of protein expression was measured using chemiluminescence (LuminoGraph, ATTO).

A further assay has as its system FADD−/− Jurkat cells. Nature of the assay: Necroptosis inhibition assay, TNF-α-induced necroptosis (CellTiter-Glo 2.0). The format is cell-based, human. To be noted: TNF-α 15 ng/mL; for Necroptosis inhibition assay (Rescue %) 1 μM: compound 1 μM; for Necroptosis inhibition assay (Rescue %) 10 μM: compound 10 μM. A digest of the protocol: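 Necroptosis induced by 15 ng/mL TNF-α (final) for 20–24 h at 37 °C, after a 30 min room-temperature pretreatment of FADD-deficient Jurkat cells with 0.1, 1 or 10 μM compound. ATP-based luminescence gave viability, from which inhibition rate and cytotoxicity were derived.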
In general terms: Cellular ATP, detected with luciferase, serves as a proxy for viable cell number.

In assay [2] the target is T1, MLKL. Nature of the assay: Measurement of binding affinity with MLKL receptor (competitive binding assay, Kd). Set-up: made in house; host or cells: HEK 293 cell line (T7 phage in E. coli BL21-derived host is also described). The procedure, abridged: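 Competitive displacement of MLKL, expressed in HEK 293 cells and DNA-tagged for qPCR, from immobilized ligand on biotin-blocked beads. Compounds were added from 111× DMSO stocks (final DMSO 0.9%). Kinase left in the eluates was quantified by qPCR to give Kd.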

As usually defined, the Kd is the concentration at which binding is half-saturated. Regarding `Nc1ncc(-c2cnn(C3CCN(CCOCCOCCOCCNC(=O)COc4cccc5c4C(=O)N(C4CCC(=O)NC4=O)C5=O)CC3)c2)nc1C(=O)O[C@@H](C(=O)Nc1ccc(F)cc1)c1ccccc1` (stereo partly drawn) [TDH-155, (R)-2-((4-fluorophenyl)amino)-2-oxo-1-phenylethyl 3-amino-6-(1-(1-(1-((2-(2,6-dioxopiperidin-3-yl)-1,3-dioxoisoindolin-4-yl)oxy)-2-oxo-6,9,12-trioxa-3-azatetradecan-14-yl)piperidin-4-yl)-1H-pyrazol-4-yl)pyrazine-2-carboxylate], at MLKL [1], the “Degradation assay (Degradation %) 1 μM” value is 31.35% and the “Degradation assay (Degradation %) 10 μM” value is listed as 63.85%. Besides, in the assay with FADD−/− Jurkat cells, the “Necroptosis inhibition assay (Rescue %) 1 μM” value is 31.1% and the “Necroptosis inhibition assay (Rescue %) 10 μM” value stood at 64.6%. On MLKL [2], this compound returned a dissociation constant (Kd) of 9.5 nM.

Regarding `Nc1ncc(-c2cnn(C3CCN(CC4CCN(CC5CCN(C(=O)c6ccc7c(N8CCC(=O)NC8=O)coc7c6)CC5)CC4)CC3)c2)nc1C(=O)O[C@@H](C(=O)Nc1ccc(F)cc1)c1ccccc1` [TDH-555, (R)-2-((4-fluorophenyl)amino)-2-oxo-1-phenylethyl 3-amino-6-(1-(1-((1-((1-(3-(2,4-dioxotetrahydropyrimidin-1(2H)-yl)benzofuran-6-carbonyl)piperidin-4-yl)methyl)piperidin-4-yl)methyl)piperidin-4-yl)-1H-pyrazol-4-yl)pyrazine-2-carboxylate], the “Degradation assay (Degradation %) 1 μM” value on MLKL [1] is on record as 78.56%. In the assay on FADD−/− Jurkat cells (FADD−/− Jurkat cells), the “Necroptosis inhibition assay (Rescue %) 1 μM” value is 47.10% and the “Necroptosis inhibition assay (Rescue %) 10 μM” value is −51.39%. Also, the dissociation constant (Kd) at MLKL [2] came to 0.22 nM.

Turning to `Nc1ncc(-c2cnn(C3CCN(CC4CCN(CC(=O)N5CCC(Nc6cccc7c6C(=O)N(C6CCC(=O)NC6=O)C7=O)CC5)CC4)CC3)c2)nc1C(=O)OC(C(=O)Nc1ccc(F)cc1)c1ccccc1` (centres unmarked) [TDH-238, 2-((4-fluorophenyl)amino)-2-oxo-1-phenylethyl 3-amino-6-(1-(1-((1-(2-(4-((2-(2,6-dioxopiperidin-3-yl)-1,3-dioxoisoindolin-4-yl)amino)piperidin-1-yl)-2-oxoethyl)piperidin-4-yl)methyl)piperidin-4-yl)-1H-pyrazol-4-yl)pyrazine-2-carboxylate], at MLKL [1], the “Degradation assay (Degradation %) 1 μM” value is 30.48% and the “Degradation assay (Degradation %) 10 μM” value is listed as 18.31%. Also, in the assay on FADD−/− Jurkat cells, the “Necroptosis inhibition assay (Rescue %) 1 μM” value amounted to 43.63% and the “Necroptosis inhibition assay (Rescue %) 10 μM” value is 31.99%. This compound also displayed a Kd on MLKL [2] of 1.7 nM.

Turning to `COc1ccc(C(=O)N2CCC(C(=O)N3CCC(CN4CCC(n5cc(-c6cnc(N)c(C(=O)O[C@@H](C(=O)Nc7ccc(F)cc7)c7ccccc7)n6)cn5)CC4)CC3)CC2)cc1N1CCC(=O)NC1=O` [TDH-515, (R)-2-((4-fluorophenyl)amino)-2-oxo-1-phenylethyl 3-amino-6-(1-(1-((1-(1-(3-(2,4-dioxotetrahydropyrimidin-1(2H)-yl)-4-methoxybenzoyl)piperidine-4-carbonyl)piperidin-4-yl)methyl)piperidin-4-yl)-1H-pyrazol-4-yl)pyrazine-2-carboxylate], at MLKL [1], the “Degradation assay (Degradation %) 1 μM” value stood at 95.21% and the “Degradation assay (Degradation %) 10 μM” value is recorded as 89.06%. For the same compound, in the assay on FADD−/− Jurkat cells (FADD−/− Jurkat cells), the “Necroptosis inhibition assay (Rescue %) 1 μM” value is recorded as 68.04% and the “Necroptosis inhibition assay (Rescue %) 10 μM” value worked out at 15.68%. On MLKL [2], this compound displayed a Kd of 1.4 nM.

`Nc1ncc(-c2cnn(C3CCN(C(=O)COCCOCCNC(=O)C4CN(c5ccc6c(c5)C(=O)N(C5CCC(=O)NC5=O)C6=O)C4)CC3)c2)nc1C(=O)O[C@@H](C(=O)Nc1ccc(F)cc1)c1ccccc1` (stereo partly drawn) [TDH-193, (R)-2-((4-fluorophenyl)amino)-2-oxo-1-phenylethyl 3-amino-6-(1-(1-(2-(2-(2-(1-(2-(2,6-dioxopiperidin-3-yl)-1,3-dioxoisoindolin-5-yl)azetidine-3-carboxamido)ethoxy)ethoxy)acetyl)piperidin-4-yl)-1H-pyrazol-4-yl)pyrazine-2-carboxylate]: the “Degradation assay (Degradation %) 10 μM” value at MLKL [1] is 11.22%. In the assay on FADD−/− Jurkat cells, the “Necroptosis inhibition assay (Rescue %) 1 μM” value came to 43.97% and the “Necroptosis inhibition assay (Rescue %) 10 μM” value was determined as 40.55%. This compound displayed a Kd at MLKL [2] of 6.1 nM.

Turning to `Nc1ncc(-c2cnn(C3CCN(CCOCCOCCOCCNC(=O)C4CCN(c5ccc6c(c5)C(=O)N(C5CCC(=O)NC5=O)C6=O)CC4)CC3)c2)nc1C(=O)O[C@@H](C(=O)Nc1ccc(F)cc1)c1ccccc1` (stereo partly drawn) [TDH-140, (R)-2-((4-fluorophenyl)amino)-2-oxo-1-phenylethyl 3-amino-6-(1-(1-(1-(1-(2-(2,6-dioxopiperidin-3-yl)-1,3-dioxoisoindolin-5-yl)piperidin-4-yl)-1-oxo-5,8,11-trioxa-2-azatridecan-13-yl)piperidin-4-yl)-1H-pyrazol-4-yl)pyrazine-2-carboxylate], on MLKL [1], the “Degradation assay (Degradation %) 1 μM” value turned out to be 41.81% and the “Degradation assay (Degradation %) 10 μM” value is reported as 83.53%. Besides, in the assay with FADD−/− Jurkat cells, the “Necroptosis inhibition assay (Rescue %) 1 μM” value was found to be 21.32% and the “Necroptosis inhibition assay (Rescue %) 10 μM” value is recorded as 81.41%. The compound also showed an equilibrium dissociation constant (Kd) on MLKL [2] of 9.2 nM.

Consider `Nc1ncc(-c2cnn(C3CCN(CCC4CCN(C(=O)CNc5ccc6c(c5)C(=O)N(C5CCC(=O)NC5=O)C6=O)CC4)CC3)c2)cc1C(=O)OC(C(=O)Nc1ccc(F)cc1)c1ccccc1` (centres unmarked) [TDH-302, 2-((4-fluorophenyl)amino)-2-oxo-1-phenylethyl 2-amino-5-(1-(1-(2-(1-((2-(2,6-dioxopiperidin-3-yl)-1,3-dioxoisoindolin-5-yl)glycyl)piperidin-4-yl)ethyl)piperidin-4-yl)-1H-pyrazol-4-yl)nicotinate], for which, on MLKL [1], the “Degradation assay (Degradation %) 1 μM” value is on record as 96.64% and the “Degradation assay (Degradation %) 10 μM” value is 85.06%. In the assay on FADD−/− Jurkat cells, the “Necroptosis inhibition assay (Rescue %) 1 μM” value is 54.15% and the “Necroptosis inhibition assay (Rescue %) 10 μM” value is given as 51.56%. On MLKL [2], this compound yielded a Kd of 8.6 nM.

For `Nc1ncc(-c2cnn(C3CCN(C(=O)COCCOCCNC(=O)CNc4ccc5c(c4)C(=O)N(C4CCC(=O)NC4=O)C5=O)CC3)c2)nc1C(=O)O[C@@H](C(=O)Nc1ccc(F)cc1)c1ccccc1` (stereo partly drawn) [TDH-191, (R)-2-((4-fluorophenyl)amino)-2-oxo-1-phenylethyl 3-amino-6-(1-(1-(2-(2-(2-(2-((2-(2,6-dioxopiperidin-3-yl)-1,3-dioxoisoindolin-5-yl)amino)acetamido)ethoxy)ethoxy)acetyl)piperidin-4-yl)-1H-pyrazol-4-yl)pyrazine-2-carboxylate], on MLKL [1], the “Degradation assay (Degradation %) 1 μM” value worked out at 44.99% and the “Degradation assay (Degradation %) 10 μM” value came out at 5.25%. Moreover, in the assay on FADD−/− Jurkat cells, the “Necroptosis inhibition assay (Rescue %) 1 μM” value is on record as 77.85% and the “Necroptosis inhibition assay (Rescue %) 10 μM” value was 49.93%. The Kd at MLKL [2] was determined as 4.9 nM.

For the compound `Nc1ncc(-c2cnn(C3CCN(CCCCCCCCCCNC(=O)C4CN(c5cccc6c5C(=O)N(C5CCC(=O)NC5=O)C6=O)C4)CC3)c2)nc1C(=O)O[C@@H](C(=O)Nc1ccc(F)cc1)c1ccccc1` (stereo partly drawn) [TDH-158, (R)-2-((4-fluorophenyl)amino)-2-oxo-1-phenylethyl 3-amino-6-(1-(1-(10-(1-(2-(2,6-dioxopiperidin-3-yl)-1,3-dioxoisoindolin-4-yl)azetidine-3-carboxamido)decyl)piperidin-4-yl)-1H-pyrazol-4-yl)pyrazine-2-carboxylate], on MLKL [1], the “Degradation assay (Degradation %) 1 μM” value amounted to 49.22% and the “Degradation assay (Degradation %) 10 μM” value is 39.81%. This compound also gave a Kd at MLKL [2] of 35 nM.
